Data as given in patent publication US20250221930A1, “A COMPOSITION COMPRISING LIPID NANOPARTICLES AND AN ANTIFUNGAL POLYENE” (INSTITUT NATIONAL DE LA SANTÉ ET DE LA RECHERCHE MÉDICALE, priority 2022, published 2025).
In brackets after ≈: the same amount, converted by molar mass.

Tests used:
L. ramosa = assay: Checkerboard MICs of AmB, ISA and PEG15HS in solution; format: cell-based, Lichtheimia ramosa; settings: Lichtheimia ramosa, RPMI, 24 h at 37° C.
Method: (§1) AmB minimum inhibitory concentrations (MIC) of each strain of Mucorales was measured in RPMI in the presence of different concentrations of ISA or PEG15HS as described by the EUCAST broth microdilution antifungal susceptibility test methodology with modification for the checkerboard procedure. Checkerboards were performed by adding 100 μL of two-fold dilutions of AmB (0.008 to 4 mg/L) and ISA (0.008 to 4 mg/L) or PEG15HS (0.04 to 2752 mg/L) in 96 well plates. One hundred microliters of a spore suspension at a concentration of 105 spores/mL were added to the wells, and the plates were incubated for 24 h at 37° C. […] Three experiments were performed for each strain.
(§2) AmB MIC of each strain of Mucorales was measured in RPMI in the presence of different concentrations of ISA and a constant concentration of PEG15HS (100 times the concentration of AmB) as described by the EUCAST broth microdilution antifungal susceptibility test methodology with modification for the checkerboard procedure. Checkerboards were performed by adding 100 μL of two-fold dilutions of AmB (0.008 to 4 mg/L)+PEG15HS (0.8 to 400 mg/L) and ISA (0.008 to 4 mg/L) in 96 well plates. One hundred microliters of a spore suspension at a concentration of 105 spores/mL were added to the wells, and the plates were incubated for 24 h at 37° C. […] Three experiments were performed for each strain. […]

Rhizopus arrhizus 1 [1] = assay: EUCAST MICs of AmB, ISA, AmB-loaded LNPs and AmB-ISA-loaded LNPs; format: cell-based; settings: Rhizopus arrhizus, 1; 24 h at 37° C.
Method: (§3) Briefly, a mass (80-120 mg) of an oil phase consisting of triglycerides (Labrafac®, or tributyrin in different mass ratios, i.e. 100% Labrafac® to 100% tributyrin) was supplemented with AmB (0,025 to 0.2 mg) and ISA (0.25 to 5 mg) and then mixed with 80 to 120 mg of PEG15HS (Solutol HS15®) and 500 to 800 μl of water to form an oil-in-water emulsion. This emulsion was then heated to 85° C., to obtain a water-in-oil emulsion, and then cooled to 40° C. Three such temperature cycles were performed and the system was then fast cooled to 4° C. The formulated nanoparticles were then characterized by size distribution and mean zeta potential measurements. Examples of formulations of LNPs loaded with AmB and AmB-ISA are detailed in Table 5:
(§4) Rhizopus arrhizus 1, Lichtheimia corymbifera and Lichtheimia ramosa strains were used. These correspond to the most frequently encountered species in human mucormycosis. These three strains were isolated from patients suffering from pulmonary mucormycosis.
(§5) MICs of AmB in solution, ISA in solution, AmB-loaded LNPs, and AmB-ISA-loaded LNPs were evaluated according to the European Committee on Antimicrobial Susceptibility Testing (EUCAST) guidelines. Briefly, MICs were determined by adding 100 μL of two-fold dilutions of AmB in solution, ISA in solution, AmB-LNPs or AmB-ISA-LNPs (0.008 to 4 mg/L) in 96-well plates. One hundred microliters of a spore suspension at a concentration of 105 spores/mL were added to the wells, and the plates were incubated for 24 h (Mucorales) or 48 h (A. fumigatus) at 37° C. […] Three experiments were performed for each strain.

Lichtheimia corymbifera = assay: as above; format: cell-based; settings: Lichtheimia corymbifera; 24 h at 37° C.
Method: as §3, §4, §5

Lichtheimia ramosa = assay: as above; format: cell-based; settings: Lichtheimia ramosa; 24 h at 37° C.
Method: as §3, §4, §5

Rhizopus arrhizus 1 [2] = assay: Checkerboard MICs of AmB, ISA and PEG15HS in solution; format: cell-based; settings: Rhizopus arrhizus, 1, RPMI, 24 h at 37° C.
Method: as §1, §2

Aspergillus fumigatus = assay: EUCAST MICs of AmB, ISA, AmB-loaded LNPs and AmB-ISA-loaded LNPs; format: cell-based; settings: 48 h at 37° C.
Method: as §3
Two reference strains (ATCC 16424 and ATCC 204305) and a clinical azole-resistant strain (AfR2) of Aspergillus fumigatus were used.
as §5

L. corymbifera = assay: Checkerboard MICs of AmB, ISA and PEG15HS in solution; format: cell-based, Lichtheimia corymbifera; settings: Lichtheimia corymbifera, RPMI, 24 h at 37° C.
Method: as §1, §2

- MIC (L. ramosa): 4 µg/mL
- MIC (Rhizopus arrhizus 1 [1]): 1 µg/mL (≈ 2.29 µM)
- MIC (Lichtheimia corymbifera): 4 µg/mL (≈ 9.14 µM)
- MIC (Lichtheimia ramosa): 4 µg/mL (≈ 9.14 µM)
- MIC (Rhizopus arrhizus 1 [2]): 1 µg/mL
- MIC (Aspergillus fumigatus; ATCC16424, Aspergillus fumigatus 16 (ATCC 16424)): 0.5 µg/mL (≈ 1.14 µM)
- MIC (Aspergillus fumigatus; Aspergillus fumigatus, ATCC204305, A. fumigatus 20 (ATCC 204305)): 0.5 µg/mL (≈ 1.14 µM)
- MIC (Aspergillus fumigatus; Aspergillus fumigatus, A. fumigatus R2 (clinical azole-resistant strain AfR2)): > 4 µg/mL
- MIC (L. corymbifera): 4 µg/mL
Compound: C[C@@H](c1nc(-c2ccc(C#N)cc2)cs1)[C@](O)(Cn1cncn1)c1cc(F)ccc1F [ISA, isavuconazole]
